Literature values as cited in patent EP0721734A1, “PESTICIDE COMPOSITION” (NIPPON SODA CO., LTD., priority 1993, dated 1995).

Row | Structure (SMILES) | water solubility
1 | CCc1cccc(C)c1N(C(=O)CCl)C(C)COC (stereo not drawn) [Metolachlor] | 530 ppm
2 | CCO[PH](=O)[O-].CCO[PH](=O)[O-].CCO[PH](=O)[O-].[Al+3] [Phosethyl-Alminium] | 120 g/L
3 | CCCC(Cn1cncn1)c1ccc(Cl)cc1Cl (stereo not drawn) [Penconasole] | 70 ppm
4 | CCSCc1ccccc1OC(=O)NC [Ethiophencalb] | 1,900 ppm
5 | CC(=NC#N)N(C)Cc1ccc(Cl)nc1 [active substance-1, N^1-[(2-chloro-5-pyridyl)methyl]-N^2-cyano-N^1-methylacetamidine] | 3,700 ppm
6 | CCN(Cc1ccc(Cl)nc1)C(=C[N+](=O)[O-])NC [2-methylamino-2-[N-ethyl-(2-chloro-5-pyridyl)methylamino]-nitoroethylene] | up to 600 g/l
